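In this assay, cells in 96-well plates receive the compound at five concentrations for 48 hours. Endpoints are linearly interpolated between the surrounding concentrations. GI50: concentration for 50% inhibition of growth.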 Active and inactive are the calls of the source. Rule as the data show it: active = GI50 up to about 1.1 µM and inactive = higher.
Tests used:
Experiment in all cases: growth of human tumour cells (NCI), 48 h
[1] = tested on: M14
[2] = tested on: UACC-62
[3] = tested on: NCI-H226
[4] = tested on: SK-MEL-28
[5] = tested on: NCI-H522
[6] = tested on: HCT-15
[7] = tested on: K562
[8] = tested on: RXF 393
[9] = tested on: LOX IMVI
[10] = tested on: HT-29
[11] = tested on: 786-0
[12] = tested on: HOP-92
[13] = tested on: NCI-H23
[14] = tested on: A498
[15] = tested on: TK-10
[16] = tested on: HCC 2998
[17] = tested on: MOLT-4
[18] = tested on: SF-295
[19] = tested on: NCI-H460
[20] = tested on: PC-3

Compound	GI50 [1]	GI50 [2]	GI50 [3]	GI50 [4]	GI50 [5]	GI50 [6] [µM]	GI50 [7]	GI50 [8]	GI50 [9]	GI50 [10]	GI50 [11]	GI50 [12]	GI50 [13]	GI50 [14]	GI50 [15]	GI50 [16]	GI50 [17]	GI50 [18]	GI50 [19]	GI50 [20]
S=c1c2ccccc2c(=S)n2n1CC=CC2	> 100 µM (inactive)	> 100 µM (inactive)	> 100 µM (inactive)	> 100 µM (inactive)	75.7 µM (inactive)	> 100	> 100 µM (inactive)	> 100 µM (inactive)	> 100 µM (inactive)	> 100 µM (inactive)	> 100 µM (inactive)	> 100 µM (inactive)	> 100 µM (inactive)	76.2 µM (inactive)	> 100 µM (inactive)	> 100 µM (inactive)	> 100 µM (inactive)	> 100 µM (inactive)		
CCC1(OC(C)=O)C(=O)OCc2c1cc1n(c2=O)Cc2cc3ccccc3nc2-1 (configuration not stated)	0.948 µM (active)	0.251 µM (active)	0.869 µM (active)	14 µM (inactive)	1.19 µM (inactive)	12.3	3.1 µM (inactive)	2.64 µM (inactive)	1.01 µM (active)	3.63 µM (inactive)	0.564 µM (active)	24.8 µM (inactive)	0.966 µM (active)	2.55 µM (inactive)	> 100 µM (inactive)	4.42 µM (inactive)	0.264 µM (active)	0.778 µM (active)	0.262 µM (active)	
CCC(C)N1CN(c2ccccc2)C2(CCN(CCCSc3ccc(F)cc3)CC2)C1=O (configuration not stated)	2.34 µM (inactive)	5.47 µM (inactive)	4.34 µM (inactive)	11.6 µM (inactive)	5.97 µM (inactive)	1.75	2.22 µM (inactive)	2.84 µM (inactive)	3.05 µM (inactive)	2.15 µM (inactive)	2.89 µM (inactive)		4.01 µM (inactive)		3.27 µM (inactive)	2.04 µM (inactive)	3 µM (inactive)	2.35 µM (inactive)		6.35 µM (inactive)
C=C1CC2C(=O)N(c3ccccc3)C(=O)C2CC1n1[nH]c(=O)n(Cc2ccccc2)c1=O (configuration not stated)	> 100 µM (inactive)	> 100 µM (inactive)	> 100 µM (inactive)	> 100 µM (inactive)	> 100 µM (inactive)	> 100	> 100 µM (inactive)	> 100 µM (inactive)	> 100 µM (inactive)	> 100 µM (inactive)	> 100 µM (inactive)	> 100 µM (inactive)	> 100 µM (inactive)	> 100 µM (inactive)	> 100 µM (inactive)	> 100 µM (inactive)	> 100 µM (inactive)	> 100 µM (inactive)	> 100 µM (inactive)	
O=c1/c(=C/c2ccco2)sc2nc3ccccc3n12	> 10 µM (inactive)	> 10 µM (inactive)	> 10 µM (inactive)	> 10 µM (inactive)	> 10 µM (inactive)	> 10	> 10 µM (inactive)	63.5 µM (inactive)	> 10 µM (inactive)	> 10 µM (inactive)	> 10 µM (inactive)	> 10 µM (inactive)	> 10 µM (inactive)	> 10 µM (inactive)	50 µM (inactive)	> 10 µM (inactive)	> 10 µM (inactive)	> 10 µM (inactive)	> 10 µM (inactive)	
CCn1c(=O)c2nc(SC)sc2n(-c2ccc(C)cc2)c1=O	6.68 µM (inactive)		> 100 µM (inactive)	> 100 µM (inactive)	> 100 µM (inactive)	> 100	> 100 µM (inactive)	> 100 µM (inactive)	> 100 µM (inactive)	> 100 µM (inactive)	0.401 µM (active)	> 100 µM (inactive)	> 100 µM (inactive)		> 100 µM (inactive)	> 100 µM (inactive)	> 100 µM (inactive)	> 100 µM (inactive)	> 100 µM (inactive)	> 100 µM (inactive)
CCN1CCN=C2c3cc(OC)ccc3Nc3c([N+](=O)[O-])ccc1c32	1 µM (active)	1.39 µM (inactive)		2.32 µM (inactive)		1.21	0.473 µM (active)	0.556 µM (active)		0.705 µM (active)	0.512 µM (active)	0.622 µM (active)	1.35 µM (inactive)		3.75 µM (inactive)	0.78 µM (active)	0.279 µM (active)	1.61 µM (inactive)		1 µM (active)
COP1(=O)OCc2cnccc2O1 (configuration not stated)	> 100 µM (inactive)	> 100 µM (inactive)	> 100 µM (inactive)	> 100 µM (inactive)	> 100 µM (inactive)	> 100	> 100 µM (inactive)		> 100 µM (inactive)	> 100 µM (inactive)	> 100 µM (inactive)		> 100 µM (inactive)		> 100 µM (inactive)	> 100 µM (inactive)	> 100 µM (inactive)	> 100 µM (inactive)	> 100 µM (inactive)	> 100 µM (inactive)
